Laboratory results taken from patent US12325736B2, “Transduced T cells expressing human SSTR2 and application thereof” (Cornell University, priority 2016, dated 2025).
Numbering of substitutions follows the chain as printed. Names and notes keep the numbering of the source. Values belong to the molecule of their own block, whether it stands above or below them.

Experiments:
[1] = molecular target: SSTR2 (Homo sapiens, UniProt P30874); experiment: Octreotide-induced SSTR2 internalization in SSTR2-transduced Jurkat T cells by flow cytometry; type: cell-based; conditions: 1 μM octreotide, 30 min, 37° C.
Experimental: SSTR2-transduced Jurkat T cells were incubated with or without octreotide, 1 μM (Sigma) for 30 min at 37° C. Subsequent internalization of SSTR2 was measured by flow cytometry analysis of SSTR2 expression. […] Values obtained were used for Scatchard analysis to estimate affinity and site density.

[2] = PET/CT DOTATOC uptake in lungs, 8505C mouse model and controls; type: in vivo, NSG mice; conditions: NSG
Experimental: 1×10^6 8505c-FLuc^+GFP^+cells were injected into NSG mice via tail vein. 2-3×10^6 primary human T cells were injected via tail vein 7-15 days after tumor cell injection. Luminescence imaging of tumor xenografts in live mice was performed using a whole body optical imager (In-Vivo Extreme 4MP, Bruker). Mice were first anesthetized with 3% isoflurane at 2 L/min O2 and subsequent to this, maintained at 2% isoflurane at 2 L/min O2. Growth or reduction in tumor burden was estimated by integration of luminescence over the lungs or the entire mouse body. Ex-vivo fluorescence imaging of mouse liver, lungs, spleen and resected tumors were performed using a whole body optical imager (In-Vivo F Pro, Bruker).
(§1) Projection data was acquired in a cone-beam geometry with approximately […] steps at 1 degree angular increments. At least 10 million coincidence events were acquired for PET per study using a 250 to 750 keV energy window and a 6 ns timing window. […] To compute DOTATOC uptake by Jurkat tumors, the ellipsoidal ROIs (Amide) were placed to enclose subcutaneous tumors that closely match overall tumor size and shape. For systemic 8505C tumor models, ellipsoids were drawn separately on the left and right sides of lungs to enclose much of five lobes of mouse lungs. The % ID/cm^3 values, computed relative to the counts in a reference tube, can be approximated to a standard uptake value (SUV^61) by dividing % ID/cm^3 by four, assuming injection efficiency of 100% and 25 g of body weight. Visualization and analyses of PET/CT images were performed using Amide (amide.sourceforge.net).

[3] = PET/CT DOTATOC uptake by subcutaneous Jurkat T cell xenografts (0-100% SSTR2+); type: in vivo, NSG mice; conditions: NSG (NOD/LtSz Prkdc^scid Il2rg^tm1Wjl/J), mouse, subcutaneous Jurkat tumor xenograft
Experimental: All animal experiments were performed in strict accordance with the recommendations in the Guide for the Care and Use of Laboratory Animals of the National Institutes of Health. This study's animal protocol was approved by the Institutional Laboratory Animal Use and Care Committee of Weill Cornell Medicine. SSTR2 expressing Jurkats were spiked with increasing numbers of non-transduced Jurkats to derive distinct cultures containing defined percentages of SSTR2 expression ranging from 100-0%. For each subcutaneous xenograft, 5×10^6 total cells were resuspended in 100 μl Matrigel Basement Membrane Matrix (Corning) and injected bilaterally into nonobese diabetic (NOD)/LtSz Prkdc^scid I12rg^tm1Wj1/J (NSG) mice (Jackson Laboratory). Measurements of tumor size were made using an external digital caliper. Tumor volume was calculated by using the modified ellipsoid formula 1/2(Length×Width^2). Length was measured as the longer dimension. Each dimensional measurement was rounded to the nearest 0.5 cm.
as §1

[4] = molecular target: ICAM-1 (Homo sapiens, UniProt P05362); experiment: SPR measurement of LFA-1 I domain affinity to ICAM-1; type: binding
Chain of ICAM-1 (P05362 28-532): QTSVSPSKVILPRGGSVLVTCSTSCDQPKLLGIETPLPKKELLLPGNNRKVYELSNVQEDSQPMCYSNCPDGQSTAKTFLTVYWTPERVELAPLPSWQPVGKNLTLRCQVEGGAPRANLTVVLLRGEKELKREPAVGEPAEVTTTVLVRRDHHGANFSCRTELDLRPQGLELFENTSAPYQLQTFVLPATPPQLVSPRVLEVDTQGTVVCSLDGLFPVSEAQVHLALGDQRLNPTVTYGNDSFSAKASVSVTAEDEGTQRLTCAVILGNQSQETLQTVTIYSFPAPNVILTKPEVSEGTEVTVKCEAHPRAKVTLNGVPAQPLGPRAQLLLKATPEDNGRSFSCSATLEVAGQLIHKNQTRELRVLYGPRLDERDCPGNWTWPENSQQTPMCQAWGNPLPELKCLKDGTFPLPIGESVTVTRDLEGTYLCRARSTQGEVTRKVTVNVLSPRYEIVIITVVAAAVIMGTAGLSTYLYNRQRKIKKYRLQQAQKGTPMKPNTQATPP
Text: Affinity is first measured by surface plasmon resonance (e.g., Biacore) to assess 1.1 binding affinity between I domain and ICAM-1.

Chain of SSTR2 (P30874 whole entry): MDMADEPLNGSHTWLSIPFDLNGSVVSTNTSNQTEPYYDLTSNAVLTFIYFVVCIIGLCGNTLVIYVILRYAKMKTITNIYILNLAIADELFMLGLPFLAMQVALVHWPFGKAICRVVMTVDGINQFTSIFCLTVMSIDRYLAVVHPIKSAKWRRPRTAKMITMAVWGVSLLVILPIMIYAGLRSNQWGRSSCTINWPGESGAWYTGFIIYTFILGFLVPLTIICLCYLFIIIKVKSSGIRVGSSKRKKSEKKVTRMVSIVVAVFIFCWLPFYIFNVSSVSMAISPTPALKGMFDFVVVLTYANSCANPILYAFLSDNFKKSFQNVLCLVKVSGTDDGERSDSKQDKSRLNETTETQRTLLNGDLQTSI

Molecule: C[C@@H](O)[C@@H]1NC(=O)[C@H](CCCCN)NC(=O)[C@@H](Cc2c[nH]c3ccccc23)NC(=O)[C@H](Cc2ccc(O)cc2)NC(=O)[C@@H](NC(=O)[C@@H](Cc2ccccc2)NC(=O)CN2CCN(CC(=O)O)CCN(CC(=O)O)CCN(CC(=O)O)CC2)CSSC[C@@H](C(=O)N[C@H](CO)[C@@H](C)O)NC1=O [DOTATOC, 1,4,7,10-tetraazacyclododecane-N^I,N^II,N^III,N^IIII-tetraacetic acid (D)-Phe^1-Tyr^3-octreotide]
- tissue uptake per volume ([2]; lungs, DOTATOC uptake in the lungs, mice treated with RR T cells): 1 %ID/mL
- tissue uptake per volume ([2]; lungs, DOTATOC uptake, mice with no tumors infused with SS T cells): 0.7 %ID/mL
- tissue uptake per volume ([2]; thoracic cavity, non-specific DOTATOC uptake in the thoracic cavity, high tumor burden, 23-27 days post-tumor xenograft, no T cells or SS T cells): 1.3 ± 0.5 %ID/mL
- tissue uptake per volume ([3]; Jurkat tumors containing 0% SSTR2+ cells): 0.6 to 0.8 %ID/mL
- tissue uptake per volume ([3]; tumors below 65 mm^3, 0% SSTR2+): 0.44 ± 0.2 %ID/mL
- tissue uptake per volume ([3]; tumors below 65 mm^3, 1% SSTR2+): 0.64 ± 0.4 %ID/mL
- tissue uptake per volume ([3]; tumors below 65 mm^3, 10% SSTR2+): 0.83 ± 0.5 %ID/mL
- tissue uptake per volume ([3]; tumors below 65 mm^3, 100% SSTR2+): 3.4 ± 1.7 %ID/mL
- tissue uptake per volume ([3]; tumors larger than 65 mm^3, 0% SSTR2+): 0.8 ± 0.35 %ID/mL
- tissue uptake per volume ([3]; tumors larger than 65 mm^3, 0.1% SSTR2+): 1.1 ± 0.51 %ID/mL
- tissue uptake per volume ([3]; tumors larger than 65 mm^3, 1% SSTR2+): 2 ± 0.77 %ID/mL
- tissue uptake per volume ([3]; tumors larger than 65 mm^3, 10% SSTR2+): 2.8 ± 1.1 %ID/mL
- tissue uptake per volume ([3]; tumors larger than 65 mm^3, 100% SSTR2+): 7.1 ± 2.3 %ID/mL

B1: F292G: LFA-1 I domain mutant F292G, G128-G311 of SEQ ID NO: 1 (protein, listed as Homo sapiens)
chain: GNVDLVFLFDGSMSLQPDEFQKILDFMKDVMKKLSNTSYQFAAVQFSTSYKTEFDFSDYVKWKDPDALLKHVKHMLLLTNTFGAINYVATEVFREELGARPDATKVLIIITDGEATDSGNIDAAKDIIRYIIGIGKHFQTKESQETLHKFASKPASEFVKILDTGEKLKDLFTELQKKIYVIEG
- Kd ([4]; SPR measurements, I domain to ICAM-1): 100 nM

Other lines, results leading:

- surface expression of SSTR2 (antibody binding) [1]: reduced surface expression of SSTR2
Molecule: C[C@@H](O)[C@@H]1NC(=O)[C@H](CCCCN)NC(=O)[C@@H](Cc2c[nH]c3ccccc23)NC(=O)[C@H](Cc2ccccc2)NC(=O)[C@@H](NC(=O)[C@H](N)Cc2ccccc2)CSSC[C@@H](C(=O)N[C@H](CO)[C@@H](C)O)NC1=O [octreotide]

- affinity higher than the wild-type (WT) I domain ([4]; vs WT KD=1.5 mM): approximately 200,000 fold
B2: F265S/F292G (DM): LFA-1 I domain double mutant F265S/F292G, G128-G311 of SEQ ID NO: 1 (protein, listed as Homo sapiens)
chain: B1 chain with F138S
